In patent publication US11479551B2, “MTA-cooperative PRMT5 inhibitors” (Mirati Therapeutics, Inc., priority 2019, dated 2022) one finds IC50 data, which are given here for seven compounds.

For assay [1], the target named is T1, PRMT5/MEP50 complex (Homo sapiens (Human), UniProt O14744). The assay can be described thus: PRMT5:MEP50 HotSpot Assay (full-length histone H2A substrate, plus and minus MTA). The conditions noted are these: IC50 + 2 μM MTA, in the presence of 2 μM MTA. It counts as biochemical. Summed up:
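Radiometric filter-binding format using recombinant full-length histone H2A as substrate. After the reaction was stopped, mixtures went onto filter paper and tritiated H2A was quantified by scintillation counting.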

Assay [2] relates to HCT116 homozygous MTAP knockout cells. Kind of assay: Proliferation assay (CellTiter-Glo, 10 days of treatment), HCT116 MTAP knockout. In kind it is cell-based. The conditions noted are these: Homo sapiens, HCT-116, 240 h, read-out: Proliferation HCT116MTAP_KO IC50. Put shortly: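 Cells (250/well) seeded in McCoy's 5A with 10% FBS, then treated the next day with a PRMT5 inhibitor dose response at 37 °C, 5% CO2. On day 6 they were split 1:10 into fresh medium with the same compound concentration. CellTiter-Glo viability was read on day 11 and IC50 taken after 10 days of treatment.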
(ATP-based viability assays read luminescence as a measure of living cells.)

The next assay relates to HCT116 parental cells. The assay can be described thus: Proliferation assay (CellTiter-Glo, 10 days of treatment), HCT116 parental. It counts as cell-based. The conditions noted are these: Homo sapiens, HCT-116, 240 h. Put shortly:
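250 cells seeded in McCoy's 5A with 10% FBS, then given a dose response of PRMT5 inhibitor at 37 °C, 5% CO2 for five days. Cells were split 1:10 on Day 6 into fresh medium with the same compound concentration for 5 more days. Viability read on Day 11 by CellTiter-Glo; IC50 after 10 days of treatment.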

In assay [3] the test system is PRMT5-dependent Symmetric Di-methyl Arginine signal in HCT116 parental cells. Kind of assay: SYM11 In-Cell Western, HCT116 parental. It counts as cell-based. The conditions noted are these: Homo sapiens, HCT-116, 96 h, 4 days of treatment, SYM11/DRAQ5 ratio. Put shortly: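 HCT116 parental cells (2,000/well, McCoy's 5A with 10% FBS) dosed with PRMT5 inhibitors for four days at 37° C. Fixed in paraformaldehyde and methanol, then stained with SYM11 antibody and DRAQ5.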

Assay [4] has as its system PRMT5-dependent Symmetric Di-methyl Arginine signal in HCT116 homozygous MTAP knockout cells. The assay can be described thus: SYM11 In-Cell Western, HCT116 MTAP knockout. It counts as cell-based. The conditions noted are these: Homo sapiens, HCT-116, 96 h, HCT116 homozygous MTAP knockout cells, 4 days of treatment, SYM11/DRAQ5 ratio; read-out: In-cell-Western (SYM11) HCT116 MTAP_KO IC50.

Assay [5] has as its target T1, PRMT5/MEP50 complex. Kind of assay: PRMT5:MEP50 FlashPlate Assay (histone H4 peptide substrate, plus and minus MTA). It counts as biochemical. How it is done: The PRMT5 inhibitory activity of compounds of the present invention was determined using either a PRMT5:MEP50 FlashPlate Assay (Reaction Biology Corporation) or a PRMT5:MEP50 HotSpot Assay (Reaction Biology Corporation).
1. PRMT5:MEP50 FlashPlate Assay

The mark [6] stands for this setting: IC50 + 2 μM MTA (nM), in the presence of 2 μM MTA.
Setting [7] is: in the absence of MTA, read-out: IC50.

Molecules are shown by their SMILES. Some results are limits rather than exact numbers.

T1 sequence (O14744 2-637): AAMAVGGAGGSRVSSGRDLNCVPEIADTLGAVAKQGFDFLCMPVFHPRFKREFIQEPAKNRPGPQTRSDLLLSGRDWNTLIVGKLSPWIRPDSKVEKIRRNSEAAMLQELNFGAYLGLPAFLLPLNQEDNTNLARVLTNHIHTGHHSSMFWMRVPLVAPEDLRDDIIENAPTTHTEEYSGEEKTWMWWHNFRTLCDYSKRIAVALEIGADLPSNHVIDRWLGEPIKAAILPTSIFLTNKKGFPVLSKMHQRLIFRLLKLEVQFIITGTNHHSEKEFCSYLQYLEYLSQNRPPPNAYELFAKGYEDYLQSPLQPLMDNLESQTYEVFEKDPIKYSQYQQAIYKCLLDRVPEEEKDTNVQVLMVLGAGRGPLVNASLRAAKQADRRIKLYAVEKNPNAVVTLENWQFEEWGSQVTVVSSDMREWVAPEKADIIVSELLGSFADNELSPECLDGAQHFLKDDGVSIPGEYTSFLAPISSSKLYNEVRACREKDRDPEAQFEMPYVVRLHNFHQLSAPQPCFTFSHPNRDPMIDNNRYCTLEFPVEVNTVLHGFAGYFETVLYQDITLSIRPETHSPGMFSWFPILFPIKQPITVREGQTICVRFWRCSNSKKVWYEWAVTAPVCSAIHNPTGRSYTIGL
T1 sequence (Q9BQA1 2-342 partner): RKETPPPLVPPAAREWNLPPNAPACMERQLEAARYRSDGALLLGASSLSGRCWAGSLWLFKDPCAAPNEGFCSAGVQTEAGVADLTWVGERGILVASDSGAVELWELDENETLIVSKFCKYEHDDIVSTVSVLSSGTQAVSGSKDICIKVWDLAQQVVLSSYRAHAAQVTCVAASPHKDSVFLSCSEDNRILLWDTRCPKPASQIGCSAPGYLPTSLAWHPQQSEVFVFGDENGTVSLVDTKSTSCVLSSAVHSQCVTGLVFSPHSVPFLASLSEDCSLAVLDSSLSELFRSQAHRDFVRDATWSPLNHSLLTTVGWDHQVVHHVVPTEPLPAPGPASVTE

Take `CCOc1ccn2ncc(-c3ccc4c(=O)[nH]nc(CN)c4c3)c2c1` [Example 4-158, 4-(aminomethyl)-6-(5-ethoxypyrazolo[1,5-a]pyridin-3-yl)phthalazin-1(2H)-one]: the IC50 is 1.46 µM at PRMT5/MEP50 complex [1]; 2.2 µM in assay [2]; 1.74 µM with HCT116 parental cells; more than 10 µM in assay [3]; more than 10 µM in assay [4]; 2.8 nM at PRMT5/MEP50 complex [5] (setting [6]). The IC50 on PRMT5/MEP50 complex [5] (setting [7]) was found to be 113 nM.
Regarding `Cc1cccc(-c2c(-c3ccc4c(=O)[nH]nc(CN)c4c3)cnn2C)c1` [Example 4-94, 4-(aminomethyl)-6-(1-methyl-5-(m-tolyl)-1H-pyrazol-4-yl)phthalazin-1(2H)-one], the IC50 at PRMT5/MEP50 complex [1] was 0.737 µM; in assay [2], 1.84 µM; in the assay with HCT116 parental cells, 4.88 µM; in assay [3], 10 µM; in assay [4], 1.18 µM; on PRMT5/MEP50 complex [5] (setting [6]), 2.2 nM. The IC50 at PRMT5/MEP50 complex [5] (setting [7]) turned out to be 83 nM.
With `CN(c1ccccc1)c1cncc(-c2ccc3c(=O)[nH]nc(CN)c3c2)c1` [Example 4-159, 4-(aminomethyl)-6-(5-(methyl(phenyl)amino)pyridin-3-yl)phthalazin-1(2H)-one], the IC50 on PRMT5/MEP50 complex [1] was 0.393 µM; in assay [2] it was 8.25 µM; with HCT116 parental cells, more than 10 µM; in assay [3], more than 10 µM; in assay [4], more than 10 µM; at PRMT5/MEP50 complex [5] (setting [6]), 4 nM. Further, at PRMT5/MEP50 complex [5] (setting [7]), the IC50 came out at 68.4 nM.
`Cn1ncc(-c2ccc3c(=O)[nH]nc(CN)c3c2)c1-c1ccccc1C#N` [Example 4-100, 2-(4-(4-(aminomethyl)-1-oxo-1,2-dihydrophthalazin-6-yl)-1-methyl-1H-pyrazol-5-yl)benzonitrile]: the IC50 at PRMT5/MEP50 complex [1] is 1.51 µM; in assay [2] it was 5.23 µM; with HCT116 parental cells, 10 µM; in assay [3], 10 µM; in assay [4] it was 0.505 µM; on PRMT5/MEP50 complex [5] (setting [6]), 0.5 nM. Also, at PRMT5/MEP50 complex [5] (setting [7]), the IC50 amounted to 80 nM.
For `CCc1cc(OC)cc(-c2c(-c3ccc4c(=O)[nH]nc(CN)c4c3)cnn2C)c1C#N` [Example 4-202, 2-(4-(4-(aminomethyl)-1-oxo-1,2-dihydrophthalazin-6-yl)-1-methyl-1H-pyrazol-5-yl)-6-ethyl-4-methoxybenzonitrile], the IC50 is 0.255 µM at PRMT5/MEP50 complex [1]; 0.232 µM in assay [2]; 2.37 µM in the assay on HCT116 parental cells; more than 1 µM in assay [3]; 0.008 µM in assay [4].
Take `Cn1ncc(-c2cc(Cl)c3c(=O)[nH]nc(CN)c3c2)c1-c1cccc(Cl)c1C#N` [Example 10-3, 2-(4-(4-(aminomethyl)-8-chloro-1-oxo-1,2-dihydrophthalazin-6-yl)-1-methyl-1H-pyrazol-5-yl)-6-chlorobenzonitrile]: the IC50 on PRMT5/MEP50 complex [1] came to 0.845 µM; in assay [2], 0.24 µM; in the assay on HCT116 parental cells, 8.48 µM; in assay [3], 3.82 µM; in assay [4], 0.005 µM.
With `Cn1ncc(-c2ccc3c(=O)[nH]nc(CN)c3c2)c1-c1cc(Cl)c2ccccc2c1C#N` [Example 4-206, 2-(4-(4-(aminomethyl)-1-oxo-1,2-dihydrophthalazin-6-yl)-1-methyl-1H-pyrazol-5-yl)-4-chloro-1-naphthonitrile], the IC50 on PRMT5/MEP50 complex [1] was 0.035 µM; in assay [2], 0.034 µM; with HCT116 parental cells it was 1 µM; in assay [3], more than 1 µM; in assay [4], 0.003 µM.
